Test results as given in patent publication US20250064886A1, “CARDIOVASCULAR AND CEREBROVASCULAR DRUG AND USE THEREOF” (HANGZHOU ADAMERCK PHARMLABS INC., priority 2021, published 2025).

Legend:
[1] = test system: rats with focal cerebral ischemia (MCAO)/reperfusion; test: Therapeutic administration, cerebral ischemia-reperfusion injury MCAO/R in rats (Example 7); type: in vivo, rat
Experimental: Experimental method: SD rats were randomly divided into 11 groups, including pseudosurgery group, a model control group, positive control drug edaravone via intravenous injection (6 mg/kg, i.v.) group, positive control drug butylphthalide injection via intravenous injection (5 mg/kg, i.v.) group, compound (1) high-dose (24 mg/kg, i.v.), medium-dose (12 mg/kg, i.v.), low-dose (6 mg/kg, i.v.) via intravenous injection group, positive drug butylphthalide soft capsule via intragastric administration (60 mg/kg, i.g.) group, and compound via intragastric administration at (1) high-dose (60 mg/kg, i.g.), medium-dose (30 mg/kg, i.g.), low-dose (15 mg/kg, i.g.) group. A middle cerebral artery occlusion (MCAO) model for cerebral ischemia-reperfusion of male rats was prepared using the internal carotid suture-occluded method with an ischemic time of 90 min followed by reperfusion. Injection and oral administration for once were performed 1 h after reperfusion, and neurobehavioral scoring was performed on rats after 24 h to determine neurological function in rats; the cerebral infarction rate and cerebral water content of rats were determined by 2,3,5-triphenyltetrazolium chloride (TTC) staining.

[2] = test system: cerebral ischemic injury in rats caused by autologous thrombus and thrombin; test: Ischemic brain injury in rats caused by autologous thrombus and thrombin (Example 6); type: in vivo, rat
Experimental: The drug was administered once by slow tail vein injection (1 ml per minute) 2 h after modeling, and the decrease in blood flow was monitored after the injection of thrombin, and 120 min after the administration of the drug. Neurobehavioral scoring was performed to determine the neurological function of rats after 24 h. The cerebral infarction rate and cerebral water content of rats were determined using 2,3,5-triphenyltetrazolium chloride (TTC) staining method, and the pathological damage of the brain of rats administered with drug 2 h after cerebral ischemia was observed by hematoxylin-eosin (HE) staining.

SMILES: CC(=O)N[C@H](CSCC1OC2OC3C(CSC[C@@H](NC(C)=O)C(=O)[O-])OC(OC4C(CSC[C@@H](NC(C)=O)C(=O)[O-])OC(OC5C(CSC[C@@H](NC(C)=O)C(=O)[O-])OC(OC6C(CSC[C@@H](NC(C)=O)C(=O)[O-])OC(OC7C(CSC[C@@H](NC(C)=O)C(=O)[O-])OC(OC8C(CSC[C@@H](NC(C)=O)C(=O)[O-])OC(OC9C(CSC[C@@H](NC(C)=O)C(=O)[O-])OC(OC1C(O)C2O)C(O)C9O)C(O)C8O)C(O)C7O)C(O)C6O)C(O)C5O)C(O)C4O)C(O)C3O)C(=O)[O-].[Na+].[Na+].[Na+].[Na+].[Na+].[Na+].[Na+].[Na+] (stereo partly drawn) [Compound (1)]
- Behavioral score ([1]; 6 mg/kg i.v. low-dose): 2.13 ± 0.35
- Cerebral infarction rate (%) ([1]; 6 mg/kg i.v. low-dose): 30.03 ± 7.79%
- Cerebral water content (%) ([1]; 6 mg/kg i.v. low-dose): 82.30 ± 1.04 %
- Behavioral score ([1]; 12 mg/kg i.v. medium-dose): 1.88 ± 0.35
- Cerebral infarction rate (%) ([1]; 12 mg/kg i.v. medium-dose): 16.94 ± 9.52 %
- Cerebral water content (%) ([1]; 12 mg/kg i.v. medium-dose): 80.74 ± 0.89 %
- Behavioral score ([1]; 15 mg/kg i.g. low-dose): 2.25 ± 0.71
- Cerebral infarction rate (%) ([1]; 15 mg/kg i.g. low-dose): 29.49 ± 5.93%
- Cerebral water content (%) ([1]; 15 mg/kg i.g. low-dose): 82.24 ± 1.49%
- Behavioral score ([1]; 24 mg/kg i.v. high-dose): 1.62 ± 0.52
- Cerebral water content (%) ([1]; 24 mg/kg i.v. high-dose): 79.95 ± 1.16 %
- Cerebral infarction rate (%) ([1]; 24 mg/kg i.v. high-dose, 1 h after reperfusion): 11.64 ± 9.38 %
- Behavioral score ([1]; 30 mg/kg i.g. medium-dose): 2.00 ± 0.53
- Cerebral infarction rate (%) ([1]; 30 mg/kg i.g. medium-dose): 21.52 ± 11.04 %
- Cerebral water content (%) ([1]; 30 mg/kg i.g. medium-dose): 80.61 ± 1.21 %
- Behavioral score ([1]; 60 mg/kg i.g. high-dose): 1.62 ± 0.52
- Cerebral infarction rate (%) ([1]; 60 mg/kg i.g. high-dose): 13.61 ± 10.24 %
- Cerebral water content (%) ([1]; 60 mg/kg i.g. high-dose): 79.87 ± 1.71 %
- Cerebral blood flow: Percentage decrease after injection of thrombin (%) ([2]; 22.5 mg/kg group, value before administration, mean ± SD, n = 10): 43.67 ± 7.17%
- Cerebral infarction rate (%) ([2]; 22.5 mg/kg i.v.): 13.91 ± 10.78 %
- Cerebral water content (%) ([2]; 22.5 mg/kg i.v.): 79.93 ± 1.98 %
- Cerebral blood flow: Percentage decrease two hours after administration (%) ([2]; 22.5 mg/kg i.v. once 2 h after modeling): 27.14 ± 6.38 %
- Pathological damage score ([2]; 22.5 mg/kg i.v., HE staining, mean ± SD, n = 10): 1.90 ± 1.10
- Behavioral score ([2]; 22.5 mg/kg i.v., after 24 h): 1.60 ± 0.70
